# “Also recorded” adds a separate entry of the source. Where two headings read alike, the source gives them in different places. Square brackets hold non-standard residues; d marks the D form. Peptide text beside a SMILES is read from it. * marks the point of attachment. Cyclohexanoyl(1S,3S-3-NH2) = N[C@H]1CCC[C@H](C(=O)*)C1; Trp(5-OH) = N[C@@H](Cc1c[nH]c2ccc(O)cc12)C(=O)O; NH(4-morpholinophenyl) = c1cc(N2CCOCC2)ccc1N*; Bip = N[C@@H](Cc1ccc(-c2ccccc2)cc1)C(=O)O; hArg = N=C(N)NCCCC[C@H](N)C(=O)O
# Legend:
# EphA4-LBD and ephrinA5 = target: T1, EphA4-LBD and ephrinA5 (Homo sapiens, UniProt P54764, C204A); assay: ephrinA5 displacement by 2D [13C,1H] correlation NMR; assay type: binding; details: ^1H] correlation spectra
# T1 construct: His tag (N); made in house; host or cells: E. coli Rosetta-Gami B(DE3) for EphA4-LBD; ephrin-A5 purchased from Sino Biological US Inc (catalogue number not given)
# T1 sequence (P54764 29-209 C204A): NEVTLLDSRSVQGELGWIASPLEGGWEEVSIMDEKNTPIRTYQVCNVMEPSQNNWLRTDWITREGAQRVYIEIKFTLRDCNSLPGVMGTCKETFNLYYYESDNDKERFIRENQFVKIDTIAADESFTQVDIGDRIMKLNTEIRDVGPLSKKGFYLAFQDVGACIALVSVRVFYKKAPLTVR
# Procedure: NMR spectra were acquired on Bruker Avance III 700 MHz spectrometer equipped with a TCI cryoprobe. All NMR data were processed and analyzed using TOPSPIN 3.6.1 (Bruker, Billerica, Mass., USA). 2D-[^13C,^1H]-HSQC experiments were acquired with 20 μM proteins using 8 scans with 2,048 and 256 complex data points in the ^1H and […] dimensions, respectively, at 298 K. For the 150D4 NMR titrations in FIG. 8 2D-[^13C,^1H]-HSQC experiments were acquired using 16 scans per increment, and for ephrinA5 binding studies (FIG. 8) with 10 μM protein, using 32 scans per increment.
# [1] = test system: primary spinal cord motor neurons; assay: Growth cone collapse in primary spinal cord motor neurons; details: 1 μM and 10 μM 150D4, 2 DIV neurons
# Aqueous solubility = assay type: physicochemical
# EphA4 = EphA4 (Mus musculus, UniProt Q03137); assay: EphA4 phosphorylation in primary spinal cord motor neurons (IP/western blot); details: 1 μM or 10 μM, 30 min
# Sequence of EphA4 (Q03137 20-986): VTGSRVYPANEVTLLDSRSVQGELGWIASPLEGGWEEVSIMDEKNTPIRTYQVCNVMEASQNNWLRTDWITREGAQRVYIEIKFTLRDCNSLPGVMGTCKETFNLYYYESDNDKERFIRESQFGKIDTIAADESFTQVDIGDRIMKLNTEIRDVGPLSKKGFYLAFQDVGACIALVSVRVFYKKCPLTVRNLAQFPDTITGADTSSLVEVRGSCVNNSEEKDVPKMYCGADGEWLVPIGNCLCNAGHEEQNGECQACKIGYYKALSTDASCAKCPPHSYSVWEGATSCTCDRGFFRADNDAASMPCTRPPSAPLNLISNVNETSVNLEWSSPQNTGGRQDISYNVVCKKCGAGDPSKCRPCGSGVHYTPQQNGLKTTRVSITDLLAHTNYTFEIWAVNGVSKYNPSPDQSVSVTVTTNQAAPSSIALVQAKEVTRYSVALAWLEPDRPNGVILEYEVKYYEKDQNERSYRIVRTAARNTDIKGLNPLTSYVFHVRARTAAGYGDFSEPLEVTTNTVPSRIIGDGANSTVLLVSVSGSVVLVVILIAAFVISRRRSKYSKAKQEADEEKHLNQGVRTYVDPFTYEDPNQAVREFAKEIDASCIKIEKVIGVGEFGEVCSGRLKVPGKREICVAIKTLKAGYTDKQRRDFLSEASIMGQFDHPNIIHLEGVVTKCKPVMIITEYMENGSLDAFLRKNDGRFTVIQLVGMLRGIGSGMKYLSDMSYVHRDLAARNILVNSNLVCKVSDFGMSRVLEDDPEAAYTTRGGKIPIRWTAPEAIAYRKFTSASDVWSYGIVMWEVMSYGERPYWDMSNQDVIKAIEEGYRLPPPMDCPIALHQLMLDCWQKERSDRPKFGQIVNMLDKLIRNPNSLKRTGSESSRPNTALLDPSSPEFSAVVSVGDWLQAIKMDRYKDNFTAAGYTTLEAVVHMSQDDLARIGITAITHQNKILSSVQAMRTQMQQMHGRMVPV
# [2] = test system: mouse motor neurons co-cultured with iAstrocytes derived from sALS patients; assay: Co-culture of sALS patient derived iAstrocytes and motor neurons (motor neuron survival); assay type: cell-based; details: 10 μM
# Excerpt: EphA4 has been directly implicated in the progression of ALS in mice models and in human genetic studies. While the mechanisms for onset and progression of ALS remain largely undetermined, astrocytes have been implicated as significant contributors to motor neuron death in both in familial ALS (fALS), that is driven by inactivating mutations within the superoxide dismutase 1 (SOD1) gene and that account for less than 2% of all ALS cases, (Di Giorgio et al., Nat Neurosci, 10 (5): 608-614, (2007); Nagai et al., Nat Neurosci, 10 (5): 615-622, (2007); Yamanaka et al., Nat Neurosci, 11 (3): 251-253, (2008)) and the more common sporadic form of ALS (sALS). […] Recently, it was shown that astrocytes derived from both patient groups are similarly toxic to motor neurons (Haidet-Phillips et al., Nat Biotechnol, 29 (9): 824-828, (2011)).
# Induced Astrocytes were generated by seeding a low quantity of NPCs into astrocyte medium (DMEM media containing 10% FBS and 0.2% N2) for five days. Following differentiation, iAstrocytes were lifted and seeded into a 96 well (10,000 cells per well).
# Cells are sorted through a 100 micron tip with sheath pressure of 27. GFP+ motor neurons were seeded in a 96 well plate (10,000 cells per well). Co-cultures were imaged with InCell for up to three days. Motor neurons with neurite outgrowth of greater than 50 um were counted as alive.
# [3] = In vivo pharmacokinetics and brain exposure; details: mice; for tissue level at time at 0.5 h / level at 0.5 h / tissue level at time at 24 h / level at 24 h / level at 1 h: mouse; for tissue level at time at 0.5 h / tissue level at time at 24 h: read-out: Amount of compound per mg of wet brain tissue
# EphA3-LBD Chimera = EphA3-LBD Chimera (Homo sapiens, UniProt P54764, C204A/E77D/G52H/I159L/I59G/M164L/M60V/R37K/V157M); assay: Isothermal titration calorimetry (ITC) against EphA3-LBD chimera; details: listed as 150D4
# Sequence of EphA3-LBD Chimera (P54764 29-209 R37K/G52H/I59G/M60V/E77D/V157M/I159L/M164L/C204A): as the sequence (P54764 29-209 C204A) above, with R9K, G24H, I31G, M32V, E49D, V129M, I131L, M136L counted along it
# Procedure: (§1) Isothermal titration calorimetry (ITC) measurements were performed using the Affinity ITC Autosampler from TA Instruments (New Castle, Del.). The titrations were performed in a reverse fashion by titrating the protein into the ligand solution. […] The injections were made at 200 s or 400 s intervals with a stirring speed of 75 rpm. All the solutions were kept in the autosampler at 4° C. The analysis of the thermodynamics signatures and for dissociation constant determination was performed by the NanoAnalyze software (TA Instruments, New Castle, Del.) and subsequently exported into Microsoft Excel.
# EphA2-LBD = EphA2-LBD (Homo sapiens, UniProt P29317); assay: Isothermal titration calorimetry (ITC) against EphA2-LBD
# Sequence of EphA2-LBD (P29317 27-200): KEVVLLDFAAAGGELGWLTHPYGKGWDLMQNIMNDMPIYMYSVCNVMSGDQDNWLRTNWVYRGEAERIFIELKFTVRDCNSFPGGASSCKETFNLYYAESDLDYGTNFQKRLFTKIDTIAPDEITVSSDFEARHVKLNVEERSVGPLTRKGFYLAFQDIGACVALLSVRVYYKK
# Procedure: as §1
# [4] = target: T2, recombinant EphA4 ligand binding domain (Homo sapiens, UniProt P54764, C204A); assay: Isothermal titration calorimetry (ITC) against EphA4-LBD; details: ITC, EphA4-LBD
# T2 construct: His tag (N); made in house; host or cells: E. coli Rosetta-Gami B(DE3), pET15b
# T2 sequence (P54764 29-209 C204A): as the sequence (P54764 29-209 C204A) above
# Procedure: Peptides were synthesized by using standard solid-phase synthesis protocol, using the BAL resin as anchoring for the C-terminal amines. Isothermal Titration Calorimetry (ITC) measurements were performed in a reverse fashion by titrating the protein into the ligand solution. Solution nuclear magnetic resonance (NMR) experiments were conducted on a 700 MHz Bruker Avance spectrometer equipped with a TCI cryoprobe. Each protein sample was dissolved into an NMR tube at a final concentration of 20 μM (1% DMSO-d6) in the presence of 20 μM of each compound.
# The fragments were transformed into Rosetta-Gami B(DE3) competent cells and grown in LB medium at 37° C. with 100 μg/mL of ampicillin until reaching an OD600 of 0.6-0.7 followed by induction with 0.4 mM IPTG overnight at 20° C. Bacteria were then collected by centrifugation and lysed by sonication at 4° C. […] EphA4 LBD with ^13C^ε/^1H^ε-Met labeled was expressed like previously described but adding a suspension of 100 mg of ^13C^ε/^1H^ε-Methionine in 1 mL of DMSO per liter of LB medium, 10 minutes before induction. […] Transformation, expression, and purification of EphA3-LBD chimera was performed as described above for EphA4-LBD.
# Isothermal titration calorimetry (ITC) measurements were performed using the Affinity ITC Autosampler from TA Instruments (New Castle, Del.). The titrations were performed in a reverse fashion by titrating the protein into the ligand solution. […] The syringe was filled with a 100 μM solution of EphA4-LBD, EphA3-LBD Chimera, or EphA2-LBD, and 20 injections of 2.5 μL each were performed into the cell containing a 20 μM solution of the compounds. The injections were made at 200 s or 400 s intervals with a stirring speed of 75 rpm. All the solutions were kept in the autosampler at 4° C. The analysis of the thermodynamics signatures and for dissociation constant determination was performed by the NanoAnalyze software (TA Instruments, New Castle, Del.) and subsequently exported into Microsoft Excel.
compound,measurement,setting,value
"N=C(N)NCCCC[C@H](NC(=O)[C@H](Cc1ccc(-c2ccccc2)cc1)NC(=O)[C@H](Cc1c[nH]c2ccc(O)cc12)NC(=O)[C@H]1CCC[C@H](N)C1)C(=O)NCC(=O)Nc1ccc(N2CCOCC2)cc1 [Compound 8, (1S,3S)—N—((S)-1-(((S)-3-([1,1′-biphenyl]-4-yl)-1-(((S)-6-guanidino-1-((2-((4-morpholinophenyl)amino)-2-oxoethyl)amino)-1-oxohexan-2-yl)amino)-1-oxopropan-2-yl)amino)-3-(5-hydroxy-1H-indol-3-yl)-1-oxopropan-2-yl)-3-aminocyclohexane-1-carboxamide] ({Cyclohexanoyl(1S,3S-3-NH2)}-[Trp(5-OH)][Bip][hArg]G-{NH(4-morpholinophenyl)})",displacement of ephrinA5 binding to EphA4-LBD,EphA4-LBD and ephrinA5,efficiently displaces the binding of ephrinA5
same,growth cone collapse,[1],effective in inducing growth cone collapse
same,Aqueous Solubility,Aqueous solubility,>50 mM
same,EphA4 receptor phosphorylation (pEphA4/total EphA4),EphA4,more significantly active than others
same,protection of motor neurons from sALS astrocytes-induced death,[2],able to protect mouse motor neurons from iAstrocytes derived from sALS patients
same,Total extracted brain compound,"[3]; 10 mg/kg IV, 30 min",205.6 ng
same,Total extracted brain compound,"[3]; 10 mg/kg IV, 24 hr",60 ng
same,Total extracted brain compound,"[3]; 50 mg/Kg IP, 30 min",185 ng
same,Total extracted brain compound,"[3]; 50 mg/Kg IP, 24 hr",34.7 ng
same,tissue level at time at 0.5 h,"[3]; brain, 10 mg/kg IV, 30 min",4730 ng/g
same,level at 0.5 h,"[3]; brain, 10 mg/kg IV, 30 min, read-out: Brain concentration",189 ng/mL
same,tissue level at time at 24 h,"[3]; brain, 10 mg/kg IV, 24 hr",1360 ng/g
same,level at 24 h,"[3]; brain, 10 mg/kg IV, 24 hr, read-out: Brain concentration",54 ng/mL
same,tissue level at time at 0.5 h,"[3]; brain, 50 mg/Kg IP, 30 min",4600 ng/g
same,level at 1 h,"[3]; brain, 50 mg/Kg IP, read-out: Brain concentration",184 ng/mL
same,tissue level at time at 24 h,"[3]; brain, 50 mg/Kg IP, 24 hr",1100 ng/g
same,level at 24 h,"[3]; brain, 50 mg/Kg IP, 24 hr, read-out: Brain concentration",45.5 ng/mL
same,level at 0.5 h,"[3]; plasma, 10 mg/kg IV, 30 min, read-out: Plasma drug concentration",484 ng/mL
same,level at 24 h,"[3]; plasma, 10 mg/kg IV, 24 hr, read-out: Plasma drug concentration",14.2 ng/mL
same,level at 1 h,"[3]; plasma, 50 mg/Kg IP, read-out: Plasma drug concentration",7740 ng/mL
same,level at 24 h,"[3]; plasma, 50 mg/Kg IP, 24 hr, read-out: Plasma drug concentration",45 ng/mL
same,binding to EphA3 (in words),EphA3-LBD Chimera,limited binding; also recorded: markedly reduced affinity
same,binding to EphA2 (in words),EphA2-LBD,limited binding
same,-TΔS,[4],-0.88 kcal/mol
same,AH,[4],-8.49 kcal/mol
same,Kd,[4]; read-out: Kd (nM)- ITC,113 nM
